Source: PubChem BioAssay (NCI)
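1) Cells in 96-well plates. 2) Compound, 48 h, 5 concentrations. 3) Linear interpolation between surrounding doses. 4) Unreached endpoint = highest concentration. TGI is the concentration that stops growth completely.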

Legend:
Test in all cases: NCI-60 cell line screen, 48 h
HOP-92 NSCLC = test system: HOP-92 NSCLC
A498 renal = test system: A498 renal
UACC-62 melanoma = test system: UACC-62 melanoma
UACC-257 melanoma = test system: UACC-257 melanoma
DMS 273 small cell lung = test system: DMS 273 small cell lung
COLO 205 colon = test system: COLO 205 colon
OVCAR-4 ovarian = test system: OVCAR-4 ovarian
SF-539 CNS = test system: SF-539 CNS
HCT-15 colon = test system: HCT-15 colon
UO-31 renal = test system: UO-31 renal
SR leukemia = test system: SR leukemia
ACHN renal = test system: ACHN renal
SK-OV-3 ovarian = test system: SK-OV-3 ovarian
LXFL 529 NSCLC = test system: LXFL 529 NSCLC
HCC-2998 colon = test system: HCC-2998 colon
HT29 colon = test system: HT29 colon
IGROV1 ovarian = test system: IGROV1 ovarian
OVCAR-8 ovarian = test system: OVCAR-8 ovarian
CCRF-CEM leukemia = test system: CCRF-CEM leukemia
K-562 leukemia = test system: K-562 leukemia
A549 NSCLC = test system: A549 NSCLC
NCI-H226 lung = test system: NCI-H226 lung
OVCAR-5 ovarian = test system: OVCAR-5 ovarian
SF-268 CNS = test system: SF-268 CNS
MALME-3M melanoma = test system: MALME-3M melanoma
TK-10 renal = test system: TK-10 renal
U251 CNS = test system: U251 CNS
SNB-75 CNS = test system: SNB-75 CNS
CAKI-1 renal = test system: CAKI-1 renal
RXF 393 renal = test system: RXF 393 renal
SK-MEL-5 melanoma = test system: SK-MEL-5 melanoma
NCI-H460 lung = test system: NCI-H460 lung
M19-MEL melanoma = test system: M19-MEL melanoma
HCT-116 colon = test system: HCT-116 colon
M14 melanoma = test system: M14 melanoma
KM12 colon = test system: KM12 colon
XF 498 CNS = test system: XF 498 CNS
NCI-H522 lung = test system: NCI-H522 lung
SNB-78 CNS = test system: SNB-78 CNS
SF-295 CNS = test system: SF-295 CNS
NCI-H23 lung = test system: NCI-H23 lung
SK-MEL-2 melanoma = test system: SK-MEL-2 melanoma
EKVX NSCLC = test system: EKVX NSCLC
SNB-19 CNS = test system: SNB-19 CNS
HL-60(TB) leukemia = test system: HL-60(TB) leukemia
DMS 114 small cell lung = test system: DMS 114 small cell lung
RPMI-8226 leukemia = test system: RPMI-8226 leukemia
786-0 renal = test system: 786-0 renal
HOP-62 NSCLC = test system: HOP-62 NSCLC
KM20L2 colon = test system: KM20L2 colon
MOLT-4 leukemia = test system: MOLT-4 leukemia
HOP-18 NSCLC = test system: HOP-18 NSCLC
DLD-1 colon = test system: DLD-1 colon
SK-MEL-28 melanoma = test system: SK-MEL-28 melanoma
SN12C renal = test system: SN12C renal
SW-620 colon = test system: SW-620 colon
OVCAR-3 ovarian = test system: OVCAR-3 ovarian
LOX IMVI melanoma = test system: LOX IMVI melanoma

Molecule `COC(=O)C1=C(C)C(=O)[C@H]2C(C(=O)OC)CCCC[C@@H]12` (stereo partly drawn) has a TGI (HOP-92 NSCLC) greater than 100 µM, a TGI (A498 renal) greater than 100 µM and a TGI (UACC-62 melanoma) greater than 100 µM. The TGI (UACC-257 melanoma) was greater than 100 µM, the TGI (DMS 273 small cell lung) was greater than 100 µM and the TGI (COLO 205 colon) was greater than 100 µM. It also gave a TGI (OVCAR-4 ovarian) greater than 100 µM, a TGI (SF-539 CNS) greater than 100 µM and a TGI (HCT-15 colon) greater than 100 µM. It also gave a TGI (UO-31 renal) greater than 100 µM, a TGI (SR leukemia) greater than 100 µM and a TGI (ACHN renal) greater than 100 µM. It also gave a TGI (SK-OV-3 ovarian) greater than 100 µM, a TGI (LXFL 529 NSCLC) greater than 100 µM and a TGI (HCC-2998 colon) greater than 100 µM. The TGI (HT29 colon) was greater than 100 µM, the TGI (IGROV1 ovarian) was greater than 100 µM and the TGI (OVCAR-8 ovarian) was greater than 100 µM. For the same molecule, the TGI (CCRF-CEM leukemia) was greater than 100 µM, the TGI (K-562 leukemia) was greater than 100 µM and the TGI (A549 NSCLC) was greater than 100 µM. It also gave a TGI (NCI-H226 lung) greater than 100 µM, a TGI (OVCAR-5 ovarian) greater than 100 µM and a TGI (SF-268 CNS) greater than 100 µM. It also gave a TGI (MALME-3M melanoma) greater than 100 µM, a TGI (TK-10 renal) greater than 100 µM and a TGI (U251 CNS) greater than 100 µM. The TGI (SNB-75 CNS) was greater than 100 µM, the TGI (CAKI-1 renal) was greater than 100 µM and the TGI (RXF 393 renal) was greater than 100 µM. The TGI (SK-MEL-5 melanoma) was greater than 100 µM, the TGI (NCI-H460 lung) was greater than 100 µM and the TGI (M19-MEL melanoma) was greater than 100 µM. The TGI (HCT-116 colon) was greater than 100 µM, the TGI (M14 melanoma) was greater than 100 µM and the TGI (KM12 colon) was greater than 100 µM. The TGI (XF 498 CNS) was greater than 100 µM, the TGI (NCI-H522 lung) was greater than 100 µM and the TGI (SNB-78 CNS) was greater than 100 µM. The TGI (SF-295 CNS) was greater than 100 µM, the TGI (NCI-H23 lung) was greater than 100 µM and the TGI (SK-MEL-2 melanoma) was greater than 100 µM. The TGI (EKVX NSCLC) was greater than 100 µM, the TGI (SNB-19 CNS) was greater than 100 µM and the TGI (HL-60(TB) leukemia) was greater than 100 µM. The TGI (DMS 114 small cell lung) was 99 µM, the TGI (RPMI-8226 leukemia) was greater than 100 µM and the TGI (786-0 renal) was greater than 100 µM. It also gave a TGI (HOP-62 NSCLC) greater than 100 µM, a TGI (KM20L2 colon) greater than 100 µM and a TGI (MOLT-4 leukemia) greater than 100 µM. The TGI (HOP-18 NSCLC) was greater than 100 µM, the TGI (DLD-1 colon) was greater than 100 µM and the TGI (SK-MEL-28 melanoma) was greater than 100 µM. For the same molecule, the TGI (SN12C renal) was greater than 100 µM and the TGI (SW-620 colon) was greater than 100 µM.
`O=C(/C=C/c1ccc(Br)cc1)c1ccc(NCc2nc3ccccc3[nH]2)cc1` gave a TGI (HOP-92 NSCLC) of 28.3 µM, a TGI (A498 renal) greater than 87.1 µM and a TGI (UACC-62 melanoma) greater than 76.2 µM. It also gave a TGI (UACC-257 melanoma) greater than 63.4 µM, a TGI (DMS 273 small cell lung) greater than 54.6 µM and a TGI (COLO 205 colon) of 13 µM. The TGI (OVCAR-4 ovarian) was greater than 62.6 µM, the TGI (SF-539 CNS) was 24.3 µM and the TGI (HCT-15 colon) was 17.3 µM. It also gave a TGI (OVCAR-3 ovarian) greater than 100 µM, a TGI (UO-31 renal) of 31.2 µM and a TGI (SR leukemia) of 84.6 µM. It also gave a TGI (ACHN renal) of 81.2 µM, a TGI (SK-OV-3 ovarian) greater than 69.3 µM and a TGI (LXFL 529 NSCLC) greater than 46.2 µM. It also gave a TGI (HCC-2998 colon) of 88.5 µM, a TGI (HT29 colon) of 27.4 µM and a TGI (IGROV1 ovarian) greater than 76.3 µM. The TGI (OVCAR-8 ovarian) was greater than 52.6 µM, the TGI (CCRF-CEM leukemia) was greater than 40.1 µM and the TGI (K-562 leukemia) was greater than 37.3 µM. The TGI (A549 NSCLC) was greater than 54.7 µM, the TGI (NCI-H226 lung) was 54.3 µM and the TGI (OVCAR-5 ovarian) was greater than 100 µM. It also gave a TGI (SF-268 CNS) of 33 µM, a TGI (MALME-3M melanoma) greater than 100 µM and a TGI (TK-10 renal) greater than 55.3 µM. It also gave a TGI (U251 CNS) greater than 36.8 µM, a TGI (SNB-75 CNS) of 20.6 µM and a TGI (CAKI-1 renal) greater than 57.4 µM. For the same molecule, the TGI (RXF 393 renal) was 24.4 µM, the TGI (SK-MEL-5 melanoma) was greater than 46.8 µM and the TGI (NCI-H460 lung) was greater than 42.2 µM. For the same molecule, the TGI (M19-MEL melanoma) was greater than 100 µM, the TGI (HCT-116 colon) was greater than 49.1 µM and the TGI (LOX IMVI melanoma) was 6.91 µM. The TGI (M14 melanoma) was greater than 100 µM, the TGI (KM12 colon) was greater than 100 µM and the TGI (XF 498 CNS) was 49.3 µM. For the same molecule, the TGI (NCI-H522 lung) was 19.4 µM, the TGI (SNB-78 CNS) was 16.6 µM and the TGI (SF-295 CNS) was greater than 46.3 µM. It also gave a TGI (NCI-H23 lung) greater than 42.5 µM, a TGI (SK-MEL-2 melanoma) greater than 82.1 µM and a TGI (EKVX NSCLC) greater than 100 µM. For the same molecule, the TGI (SNB-19 CNS) was greater than 53.5 µM, the TGI (HL-60(TB) leukemia) was greater than 22.9 µM and the TGI (DMS 114 small cell lung) was greater than 37.5 µM. For the same molecule, the TGI (786-0 renal) was greater than 56.2 µM, the TGI (HOP-62 NSCLC) was greater than 61.2 µM and the TGI (KM20L2 colon) was greater than 100 µM. It also gave a TGI (MOLT-4 leukemia) of 39.9 µM, a TGI (HOP-18 NSCLC) greater than 100 µM and a TGI (DLD-1 colon) greater than 67.4 µM. The TGI (SK-MEL-28 melanoma) was greater than 100 µM, the TGI (SN12C renal) was 66.5 µM and the TGI (SW-620 colon) was 21.2 µM.
Work on `O=C1C(=Cc2cccs2)C(=O)N(CCc2ccccc2)S(=O)(=O)N1CCc1ccccc1` yielded a TGI (HOP-92 NSCLC) greater than 50 µM, a TGI (UACC-62 melanoma) greater than 50 µM and a TGI (UACC-257 melanoma) greater than 50 µM. The TGI (DMS 273 small cell lung) was greater than 50 µM, the TGI (COLO 205 colon) was greater than 50 µM and the TGI (OVCAR-4 ovarian) was greater than 50 µM. It also gave a TGI (SF-539 CNS) greater than 50 µM, a TGI (HCT-15 colon) greater than 50 µM and a TGI (OVCAR-3 ovarian) greater than 50 µM. For the same molecule, the TGI (UO-31 renal) was greater than 50 µM, the TGI (SR leukemia) was greater than 50 µM and the TGI (ACHN renal) was greater than 50 µM. For the same molecule, the TGI (SK-OV-3 ovarian) was greater than 50 µM, the TGI (LXFL 529 NSCLC) was greater than 50 µM and the TGI (HCC-2998 colon) was greater than 50 µM. For the same molecule, the TGI (HT29 colon) was greater than 50 µM, the TGI (IGROV1 ovarian) was 16.5 µM and the TGI (OVCAR-8 ovarian) was greater than 50 µM. The TGI (CCRF-CEM leukemia) was greater than 50 µM, the TGI (K-562 leukemia) was greater than 50 µM and the TGI (A549 NSCLC) was greater than 50 µM. For the same molecule, the TGI (NCI-H226 lung) was greater than 50 µM, the TGI (OVCAR-5 ovarian) was greater than 50 µM and the TGI (SF-268 CNS) was greater than 50 µM. For the same molecule, the TGI (MALME-3M melanoma) was greater than 50 µM, the TGI (TK-10 renal) was greater than 50 µM and the TGI (U251 CNS) was 35.2 µM. For the same molecule, the TGI (SNB-75 CNS) was greater than 50 µM, the TGI (RXF 393 renal) was greater than 50 µM and the TGI (SK-MEL-5 melanoma) was greater than 50 µM. For the same molecule, the TGI (NCI-H460 lung) was greater than 50 µM, the TGI (M19-MEL melanoma) was greater than 50 µM and the TGI (HCT-116 colon) was 30.4 µM. The TGI (LOX IMVI melanoma) was greater than 50 µM, the TGI (M14 melanoma) was greater than 50 µM and the TGI (KM12 colon) was greater than 50 µM. For the same molecule, the TGI (XF 498 CNS) was greater than 50 µM, the TGI (NCI-H522 lung) was greater than 50 µM and the TGI (SNB-78 CNS) was greater than 50 µM. For the same molecule, the TGI (SF-295 CNS) was greater than 50 µM, the TGI (NCI-H23 lung) was greater than 50 µM and the TGI (SK-MEL-2 melanoma) was greater than 50 µM. For the same molecule, the TGI (EKVX NSCLC) was greater than 50 µM, the TGI (SNB-19 CNS) was greater than 50 µM and the TGI (HL-60(TB) leukemia) was 38.4 µM. The TGI (DMS 114 small cell lung) was 22.2 µM, the TGI (RPMI-8226 leukemia) was greater than 50 µM and the TGI (786-0 renal) was greater than 50 µM. It also gave a TGI (KM20L2 colon) greater than 50 µM, a TGI (MOLT-4 leukemia) greater than 50 µM and a TGI (HOP-18 NSCLC) greater than 50 µM. For the same molecule, the TGI (DLD-1 colon) was greater than 50 µM, the TGI (SK-MEL-28 melanoma) was greater than 50 µM and the TGI (SN12C renal) was greater than 50 µM. For the same molecule, the TGI (SW-620 colon) was greater than 50 µM.
